Values of other authors, collected in patent US20230112273A1, “Process for Producing an Aroma-Laden Gas, Aroma-Laden Gas, and Use of the Aroma-Laden Gas” (Döhler GmbH, priority 2020, published 2023).

Conditions: listed beside the composition of the aromatic substances in the laden solid phase (beer, Exemplary Embodiment 1)

Row | Log P | Structure (SMILES)
1 | 1.22 | CC(C)CCO [3-methyl-1-butanol]
2 | 2.12 | CC(=O)OCCC(C)C [3-methylbutyl acetate]
3 | 3.96 | CCCCCCCCCC(=O)O [decanoic acid]
4 | 1.84 | CCCCCC(=O)O [hexanoic acid]
5 | 0.69 | CC(C)CO [isobutanol]
6 | 3.9 | CCCCCCCC(=O)OCC [octanoic acid ethyl ester]

Row | Structure (SMILES) | Log P
7 | CCC(C)CO (stereo not shown) [2-methyl-1-butanol] | 1.22
